Patent US20250144067A1, “PERSONALIZED STARVATION THERAPY FOR CANCER” (Faeth Therapeutics, Inc., priority 2021, published 2025)
Counter-ions that a name gives are not always drawn.

What was measured:
[1] = tested on: NCI-H292 lung cancer cells; experiment: FDA drug screening, complete media vs cholesterol-free media without statin (TABLE 1); type: cell-based, human
[2] = tested on: NCI-H292 lung cancer cells; experiment: FDA drug screening, complete media vs cholesterol-free media with simvastatin (TABLE 2); type: cell-based, human; settings: for Cholesterol-free media + simvastatin (0.04 μM) / Complete Media: NCI-H292 cells
[3] = Complete minus Cholesterol-free; […]
[4] = NCI-H292 cells, FDA drug library screen, cholesterol-free media without statin
[5] = NCI-H292 cells, FDA drug library screen, complete media
[6] = drug in cholesterol-free media with simvastatin 0.04 μM
[7] = complete media vs cholesterol-free media + simvastatin (0.04 μM), […]
[8] = Complete minus Cholesterol-free; >0 enhanced anti-cancer activity, about 0 neutral, <0 antagonist
[9] = NCI-H292 cells, cholesterol-free media without statin
[10] = complete media vs cholesterol-free media + simvastatin (0.04 μM), >0 enhanced anti-cancer activity, about 0 neutral, <0 antagonist
[11] = NCI-H292 cells, cholesterol-free media without statin, FDA drug library screen
[12] = NCI-H292 cells, complete media, FDA drug library screen
[13] = FDA library drug in cholesterol-free media with simvastatin 0.04 μM
[14] = FDA library drug in complete media
[15] = complete vs cholesterol-free media; […]
[16] = complete vs cholesterol-free media; >0 enhanced anti-cancer activity, about 0 neutral, <0 antagonist
[17] = FDA drug library screen, cholesterol-free media with simvastatin 0.04 μM
[18] = FDA drug library screen, complete media
[19] = complete media minus cholesterol-free media + simvastatin, >0 enhanced anti-cancer activity, about 0 neutral, <0 antagonist
[20] = cholesterol-free media with simvastatin 0.04 μM, FDA drug library screen (TABLE 2)
[21] = complete media, FDA drug library screen (TABLE 2)
[22] = complete media minus cholesterol-free media + simvastatin (0.04 μM), […]
[23] = Complete minus Cholesterol-free; greater than 0 enhanced anti-cancer activity, about 0 neutral, below 0 antagonist

CC=CC(=O)N(CC)c1ccccc1C [Crotamiton]
Difference [1, 3]: −0.17 | Cholesterol-free [1, 4]: 1.084 | Complete [1, 5]: 0.9155 | Cholesterol-free media + simvastatin (0.04 μM) [2, 6]: 1.259 | Complete Media ([2]; drug in complete media): 1.088 | Difference [2, 7]: −0.17

C=CC1=C(C(=O)O)N2C(=O)[C@@H](NC(=O)/C(=N\O)c3csc(N)n3)[C@H]2SC1 [Cefdinir]
Difference [1, 8]: −0.24 | Cholesterol-free [1, 9]: 1.244 | Complete ([1]; NCI-H292 cells, complete media): 0.9998 | Cholesterol-free media + simvastatin (0.04 μM) [2, 6]: 1.206 | Complete Media ([2]; drug in complete media): 0.987 | Difference [2, 10]: −0.22

COc1cccc(OC)c1C(=O)N[C@@H]1C(=O)N2[C@@H]1SC(C)(C)[C@@H]2C(=O)O [Methicillin (sodium salt)]
Difference [1, 8]: −0.06 | Cholesterol-free [1, 11]: 1.114 | Complete [1, 12]: 1.051 | Cholesterol-free media + simvastatin (0.04 μM) [2, 13]: 1.829 | Complete Media [2, 14]: 1.406 | Difference [2, 10]: −0.42

Vonoprazan (Fumarate)
Cholesterol-free [1, 11]: 1.164 | Complete [1, 12]: 1.405 | Difference [1, 15]: 0.24 | Complete Media [2, 14]: 0.7838 | Difference [2, 7]: −0.27

Cc1cc(NS(=O)(=O)c2ccc(N)cc2)nc(C)n1 [Sulfisomidin]
Difference [1, 3]: −0.21 | Cholesterol-free [1, 9]: 1.055 | Complete ([1]; NCI-H292 cells, complete media): 0.8471 | Cholesterol-free media + simvastatin (0.04 μM) [2, 13]: 1.147 | Complete Media [2, 14]: 0.7862 | Difference [2, 7]: −0.36

CCCCOc1ccc(CC(=O)NO)cc1 [Bufexamac]
Cholesterol-free [1, 11]: 1.346 | Complete [1, 12]: 1.459 | Difference [1, 16]: 0.11 | Cholesterol-free media + simvastatin (0.04 μM) [2, 17]: 1.029 | Complete Media [2, 18]: 1.594 | Difference [2, 19]: 0.56

Nc1ncnc2c1ncn2CCOCP(=O)(O)O [Adefovir]
Cholesterol-free [1, 11]: 0.8102 | Complete [1, 12]: 1.199 | Difference [1, 15]: 0.39 | Cholesterol-free media + simvastatin (0.04 μM) [2, 20]: 0.9937 | Complete Media [2, 21]: 0.9462 | Difference [2, 22]: −0.05

NCCC(O)(P(=O)([O-])O)P(=O)([O-])O.O.O.O.O.O.[Na+].[Na+] [Pamidronate (disodium pentahydrate)]
Difference [1, 23]: −0.12 | Cholesterol-free [1, 4]: 1.305 | Complete [1, 5]: 1.183 | Cholesterol-free media + simvastatin (0.04 μM) [2, 17]: 1.169 | Complete Media [2, 18]: 1.009 | Difference [2, 10]: −0.16

CN(C)c1cc(NC(=O)CNC(C)(C)C)c(O)c2c1C[C@H]1C[C@H]3[C@H](N(C)C)C(O)=C(C(N)=O)C(=O)[C@@]3(O)C(O)=C1C2=O [Tigecycline]
Difference [1, 3]: −0.13 | Cholesterol-free [1, 4]: 1.231 | Complete [1, 5]: 1.106 | Cholesterol-free media + simvastatin (0.04 μM) [2, 13]: 1.179 | Complete Media [2, 14]: 0.8929 | Difference [2, 7]: −0.29

CCCCCCCCCCCC(=O)OCN1C(=O)CCc2ccc(OCCCCN3CCN(c4cccc(Cl)c4Cl)CC3)cc21 [Aripiprazole Lauroxil]
Difference [1, 3]: −0.06 | Cholesterol-free [1, 11]: 0.9297 | Complete [1, 12]: 0.8705 | Cholesterol-free media + simvastatin (0.04 μM) [2, 20]: 0.9724 | Complete Media [2, 21]: 0.9697 | Difference [2, 22]: 0.00

[NH2][Pt]1([NH2])[O]CC(=O)[O]1 [Nedaplatin]
Difference [1, 3]: −0.25 | Cholesterol-free [1, 9]: 1.253 | Complete ([1]; NCI-H292 cells, complete media): 1.005 | Cholesterol-free media + simvastatin (0.04 μM) [2, 6]: 1.191 | Complete Media ([2]; drug in complete media): 0.986 | Difference [2, 7]: −0.20

OC[C@H]1O[C@@H](c2ccc(Cl)c(Cc3ccc(O[C@H]4CCOC4)cc3)c2)[C@H](O)[C@@H](O)[C@@H]1O [Empagliflozin]
Cholesterol-free [1, 11]: 0.7937 | Complete [1, 12]: 1.112 | Difference [1, 16]: 0.32 | Cholesterol-free media + simvastatin (0.04 μM) [2, 17]: 0.9749 | Complete Media [2, 18]: 0.8261 | Difference [2, 10]: −0.15

C#C[C@]1(O)C=C[C@H]2[C@@H]3CCC4=CC(=O)CC[C@@H]4[C@H]3CC[C@@]21CC [Gestodene]
Difference [1, 23]: −0.11 | Cholesterol-free [1, 4]: 1.134 | Complete [1, 5]: 1.023 | Cholesterol-free media + simvastatin (0.04 μM) [2, 13]: 1.543 | Complete Media [2, 14]: 1.003 | Difference [2, 10]: −0.54

CCOC(=O)N1CCC(=C2c3ccc(Cl)cc3CCc3cccnc32)CC1 [Loratadine]
Difference [1, 8]: −0.30 | Cholesterol-free [1, 9]: 1.122 | Complete ([1]; NCI-H292 cells, complete media): 0.8264 | Cholesterol-free media + simvastatin (0.04 μM) ([2]; cholesterol-free media with simvastatin 0.04 μM, cell growth value in FDA drug screen): 0.8147 | Complete Media ([2]; complete media, cell growth value in FDA drug screen): 0.9097 | Difference [2, 19]: 0.10
